Reference: ChEMBL document CHEMBL1201862, “PubChem BioAssay data set” (2004)
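A five-concentration, 48-hour dose response in 96-well plates underlies each endpoint, interpolated linearly between surrounding concentrations. GI50 is the concentration that inhibits growth by half.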 Activity calls are given as the source filed them. No stated cut-off is given here; in the data, active = GI50 up to about 1.1 µM and inactive = higher.

Key:
Assay in all cases: inhibition of tumour cell growth, NCI panel, 48 h
A549 = test system: A549
CCRF-CEM = test system: CCRF-CEM
EKVX = test system: EKVX
K562 = test system: K562
KM12 = test system: KM12
NCI-H522 = test system: NCI-H522
OVCAR-4 = test system: OVCAR-4
OVCAR-5 = test system: OVCAR-5
OVCAR-8 = test system: OVCAR-8
RPMI-8226 = test system: RPMI-8226
SF-268 = test system: SF-268
SNB-75 = test system: SNB-75
HCC 2998 = test system: HCC 2998
SK-MEL-28 = test system: SK-MEL-28
SK-MEL-2 = test system: SK-MEL-2

Measured: GI50

O=C(O)c1c[nH]cc1C(=O)O
inactive: A549 > 100 µM | CCRF-CEM > 100 µM | EKVX > 100 µM | K562 > 100 µM | KM12 > 100 µM | NCI-H522 > 100 µM | OVCAR-4 > 100 µM | OVCAR-5 > 100 µM | OVCAR-8 > 100 µM | RPMI-8226 > 100 µM | SF-268 > 100 µM | SNB-75 96.4 µM

CC(C)c1cccc(C(C)C)c1NC(=O)C(=O)C(C(=O)c1ccccc1-c1ccccc1)C1OC(=O)c2ccccc21 (centres undefined)
inactive: A549 28 µM | CCRF-CEM 13.8 µM | EKVX > 10 µM | HCC 2998 17.6 µM | K562 21.4 µM | KM12 16.7 µM | NCI-H522 15.5 µM | OVCAR-4 16 µM | OVCAR-5 18.5 µM | OVCAR-8 13.7 µM | RPMI-8226 32.6 µM | SF-268 21.7 µM | SK-MEL-28 20.1 µM | SK-MEL-2 14.9 µM

CCc1cccc(C)c1NC(=O)CCc1nnc(S)[nH]1
inactive: A549 > 100 µM | CCRF-CEM > 100 µM | EKVX > 100 µM | HCC 2998 > 100 µM | K562 > 100 µM | KM12 > 100 µM | NCI-H522 > 100 µM | OVCAR-4 > 100 µM | OVCAR-5 > 100 µM | OVCAR-8 > 100 µM | RPMI-8226 > 100 µM | SF-268 > 100 µM | SK-MEL-28 > 100 µM | SK-MEL-2 > 100 µM

CN1CCc2c1nc(-c1ccc([N+](=O)[O-])cc1)c1c2N(C)CC1
inactive: A549 > 100 µM | CCRF-CEM > 100 µM | EKVX > 100 µM | HCC 2998 > 100 µM | K562 46 µM | KM12 30.9 µM | OVCAR-4 > 100 µM | OVCAR-5 > 100 µM | OVCAR-8 > 100 µM | RPMI-8226 48 µM | SF-268 > 100 µM | SK-MEL-2 > 100 µM | SNB-75 > 100 µM

OCc1ccc2[n+](c1)CCC1c3ccccc3NC21 (centres undefined)
inactive: A549 > 300 µM | CCRF-CEM > 300 µM | EKVX > 300 µM | HCC 2998 > 300 µM | K562 > 300 µM | KM12 > 300 µM | NCI-H522 > 300 µM | OVCAR-8 > 300 µM | RPMI-8226 > 300 µM | SF-268 167 µM | SK-MEL-28 > 300 µM | SK-MEL-2 > 300 µM

O=C(c1cc2ccccc2o1)N(Cc1ccccc1)c1ccccc1
inactive: A549 32.6 µM | CCRF-CEM 13.6 µM | EKVX 27 µM | HCC 2998 23.4 µM | K562 15 µM | KM12 20.6 µM | NCI-H522 16.4 µM | OVCAR-5 30.3 µM | OVCAR-8 22.9 µM | RPMI-8226 18.2 µM | SF-268 41.4 µM | SK-MEL-28 36.9 µM | SK-MEL-2 33.8 µM | SNB-75 28.3 µM

CC1CC(=O)CC[C@@H]1OCc1ccccc1 (some centres undefined)
inactive: A549 > 100 µM | CCRF-CEM 53.8 µM | EKVX > 100 µM | HCC 2998 > 100 µM | K562 58.1 µM | KM12 > 100 µM | OVCAR-4 > 100 µM | OVCAR-5 > 100 µM | OVCAR-8 > 100 µM | RPMI-8226 47 µM | SF-268 > 100 µM | SK-MEL-2 > 100 µM | SNB-75 > 100 µM

CCN(CC)CCNC(=O)c1cccc2cc3ccccc3nc12
inactive: A549 3.56 µM | CCRF-CEM 5.69 µM | EKVX 5.73 µM | HCC 2998 5.89 µM | K562 3.72 µM | KM12 8 µM | OVCAR-5 6.21 µM | OVCAR-8 6 µM | SF-268 6.84 µM | SK-MEL-28 9.71 µM | SK-MEL-2 7.53 µM | SNB-75 7.71 µM

CCOC1CC2OC(=O)C1C=C2C(=O)OC (centres undefined)
inactive: A549 > 100 µM | CCRF-CEM 16.8 µM | EKVX > 100 µM | HCC 2998 > 100 µM | K562 25.8 µM | KM12 54.5 µM | NCI-H522 12 µM | OVCAR-4 23.1 µM | OVCAR-5 > 100 µM | RPMI-8226 14.7 µM | SF-268 28.9 µM | SK-MEL-28 21 µM | SK-MEL-2 31.4 µM

CC(=O)CCCCCCCCCCCC[C@@H]1CC[C@H](C)[C@H](O)N1
inactive: A549 > 100 µM | CCRF-CEM > 100 µM | EKVX > 100 µM | HCC 2998 > 100 µM | K562 > 100 µM | KM12 > 100 µM | NCI-H522 > 100 µM | OVCAR-5 > 100 µM | OVCAR-8 > 100 µM | RPMI-8226 > 100 µM | SF-268 > 100 µM | SK-MEL-28 > 100 µM | SK-MEL-2 > 100 µM | SNB-75 89.1 µM

O=C(Nc1ccc([N+](=O)[O-])cc1)C1C(=O)C(=O)N(c2ccc([N+](=O)[O-])cc2)C1=O (centres undefined)
inactive: A549 > 100 µM | CCRF-CEM > 100 µM | EKVX > 100 µM | HCC 2998 > 100 µM | K562 8.07 µM | KM12 > 100 µM | NCI-H522 55.8 µM | OVCAR-5 > 100 µM | OVCAR-8 > 100 µM | RPMI-8226 46.5 µM | SF-268 > 100 µM | SK-MEL-28 > 100 µM | SK-MEL-2 > 100 µM | SNB-75 > 100 µM

COc1cccc(NC(=S)Nn2c(C)nc3ccccc3c2=O)c1
inactive: A549 > 100 µM | CCRF-CEM > 100 µM | K562 > 100 µM | KM12 > 100 µM | NCI-H522 > 100 µM | OVCAR-4 > 100 µM | OVCAR-5 > 100 µM | OVCAR-8 > 100 µM | RPMI-8226 > 100 µM | SF-268 > 100 µM | SK-MEL-28 > 100 µM | SK-MEL-2 > 100 µM | SNB-75 > 100 µM

Cc1nc(-n2nc(-c3ccccc3)cc2-c2ccccc2)sc1C(=O)/C=C/c1ccccc1
inactive: A549 75.3 µM | CCRF-CEM 72.9 µM | EKVX 32.9 µM | HCC 2998 > 100 µM | K562 49.8 µM | KM12 84.3 µM | NCI-H522 33.1 µM | OVCAR-5 > 100 µM | OVCAR-8 > 100 µM | RPMI-8226 > 100 µM | SF-268 > 100 µM | SK-MEL-28 > 100 µM | SK-MEL-2 > 100 µM | SNB-75 6.58 µM

Cc1cc2c(=O)n(-c3ccc(F)cc3)c(C)nc2c(C(=O)O)c1C
inactive: A549 > 100 µM | CCRF-CEM > 100 µM | EKVX > 100 µM | HCC 2998 > 100 µM | K562 > 100 µM | KM12 > 100 µM | OVCAR-4 > 100 µM | OVCAR-5 > 100 µM | OVCAR-8 > 100 µM | RPMI-8226 > 100 µM | SF-268 > 100 µM | SK-MEL-28 > 100 µM | SK-MEL-2 > 100 µM | SNB-75 > 100 µM

NNC(=O)C(=O)N/N=C(\CCCC(=O)Nc1ccc(Cl)cc1)CC(=O)c1ccc(F)cc1
inactive: A549 > 100 µM | CCRF-CEM > 100 µM | EKVX > 100 µM | HCC 2998 > 100 µM | KM12 > 100 µM | OVCAR-4 > 100 µM | OVCAR-5 > 100 µM | OVCAR-8 > 100 µM | RPMI-8226 36.1 µM | SF-268 > 100 µM | SK-MEL-28 > 100 µM | SK-MEL-2 15.7 µM | SNB-75 > 100 µM
